pEC50, pIC50: −log10 of the molar value.
Columns and labels:
[1] = target: Melanin-concentrating hormone receptor 2 (Homo sapiens, UniProt Q969V1); assay: Inhibition of 125I-[Phe13,Tyr19]-MCH binding to human MCH-R2 at 2uM
[2] = target: T1, Melanin-concentrating hormone receptor 1 (Homo sapiens, UniProt Q99705); assay: Displacement of 125I-[Phe13,Tyr19]-MCH from human MCH-R1
[3] = target: T1, Melanin-concentrating hormone receptor 1; assay: Stimulation of IP3-coupled mobilization of calcium in HEK293 cells expressing MCH-R1; assay type: functional, cell-based

Sequence of Melanin-concentrating hormone receptor 2 (Q969V1 whole entry): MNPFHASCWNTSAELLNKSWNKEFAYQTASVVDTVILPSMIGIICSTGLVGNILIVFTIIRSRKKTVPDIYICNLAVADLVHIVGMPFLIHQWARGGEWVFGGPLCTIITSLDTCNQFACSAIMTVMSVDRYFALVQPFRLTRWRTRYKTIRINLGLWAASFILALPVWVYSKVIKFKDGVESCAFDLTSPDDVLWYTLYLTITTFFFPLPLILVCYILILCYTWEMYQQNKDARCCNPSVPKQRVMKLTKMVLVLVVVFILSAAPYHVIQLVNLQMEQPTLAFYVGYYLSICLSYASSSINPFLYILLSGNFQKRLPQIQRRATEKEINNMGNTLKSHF
T1 sequence (Q99705 whole entry): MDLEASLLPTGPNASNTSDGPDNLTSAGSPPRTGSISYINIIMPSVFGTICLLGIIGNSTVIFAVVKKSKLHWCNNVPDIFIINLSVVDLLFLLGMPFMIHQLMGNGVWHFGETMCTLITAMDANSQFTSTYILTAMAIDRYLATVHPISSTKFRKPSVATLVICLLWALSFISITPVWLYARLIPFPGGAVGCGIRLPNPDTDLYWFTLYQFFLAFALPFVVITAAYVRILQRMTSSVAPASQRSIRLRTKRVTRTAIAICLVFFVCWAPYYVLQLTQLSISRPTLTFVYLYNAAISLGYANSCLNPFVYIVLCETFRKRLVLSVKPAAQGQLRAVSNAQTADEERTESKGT

Compound	inhibition [1]	pIC50 [2]	pEC50 [3]
CCCc1cc(N)c2cc(NC(=O)/C=C/c3ccc(N)cc3)ccc2n1	< 50%	6.72	–
CCCc1cc(N)c2cc(NC(=O)/C=C/c3ccc(Cl)cc3)ccc2n1	< 50%	8.22	7.02
Nc1cc(C2CCCC2)nc2ccc(NC(=O)/C=C/c3ccc(C(F)(F)F)cc3)cc12	< 50%	9.10	7.17
CCCc1cc(N)c2cc(NC(=O)/C=C/c3ccc(SC)cc3)ccc2n1	< 50%	8.05	7.15
CCCc1cc(N)c2cc(NC(=O)/C=C/c3ccc(C(F)(F)F)cc3)ccc2n1 (stereo in doubt; form 1) [listing 1 of 2 here]	< 50%	–	–
CCCCCc1cc(N)c2cc(NC(=O)/C=C/c3ccc(C(F)(F)F)cc3)ccc2n1	< 50%	8.92	7.05
CCCc1cc(N)c2cc(NC(=O)c3ccc(C(F)(F)F)cc3)ccc2n1	< 50%	5.00	–
CCCc1cc(N)c2cc(C(=O)NCCc3ccc(C(F)(F)F)cc3)ccc2n1	< 50%	5.57	–
CCCc1cc(OC)c2cc(NC(=O)/C=C/c3ccc(C(F)(F)F)cc3)ccc2n1	< 50%	7.59	6.44
Nc1cc(C2CCC2)nc2ccc(NC(=O)/C=C/c3ccc(C(F)(F)F)cc3)cc12	< 50%	8.70	6.60
CCCc1cc(NC)c2cc(NC(=O)/C=C/c3ccc(C(F)(F)F)cc3)ccc2n1	< 50%	8.82	6.82
CCCc1cc(N)c2cc(NC(=O)NCc3ccc(C(F)(F)F)cc3)ccc2n1	< 50%	7.42	6.42
CC(C)(C)Cc1cc(N)c2cc(NC(=O)/C=C/c3ccc(C(F)(F)F)cc3)ccc2n1	< 50%	8.24	6.96
CCCc1cc(N2CCCCC2)c2cc(NC(=O)/C=C/c3ccc(C(F)(F)F)cc3)ccc2n1	< 50%	< 5.40	–
CCCc1ccc(/C=C/C(=O)Nc2ccc3nc(CCC)cc(N)c3c2)cc1	< 50%	8.40	5.44
CCCc1cc(N)c2cc(NC(=O)/C=C/c3ccc(Cl)c(Cl)c3)ccc2n1	< 50%	7.22	6.00
CCCc1cc(N)c2cc(NC(=O)/C=C/c3ccc(CC)cc3)ccc2n1	< 50%	8.85	6.80
CCCc1cc(N)c2cc(NC(=O)/C=C/c3ccc(C(F)(F)F)cc3)ccc2n1 (stereo in doubt; form 1) [listing 2 of 2 here]	–	8.89	7.21
CCCc1cc(N)c2cc(NC(=O)/C=C/c3cccc(Cl)c3)ccc2n1	< 50%	5.96	–
CCCc1cc(N)c2cc(NC(=O)/C=C/c3ccc(O)cc3)ccc2n1	< 50%	5.96	–
CCCc1cc(N(C)C)c2cc(NC(=O)/C=C/c3ccc(C(F)(F)F)cc3)ccc2n1	< 50%	7.37	6.52
CCCc1cc(N)c2cc(NC(=O)/C=C/c3ccc(Cl)cc3Cl)ccc2n1	< 50%	8.18	6.04
CCCc1cc(N)c2cc(NC(=O)/C=C/c3ccc(OC(C)=O)cc3)ccc2n1	< 50%	7.02	6.20
CC(C)(C)c1cc(N)c2cc(NC(=O)/C=C/c3ccc(C(F)(F)F)cc3)ccc2n1	< 50%	9.52	7.54
CCCc1cc(N)c2cc(NC(=O)/C=C/c3ccc(F)cc3)ccc2n1	< 50%	6.89	6.70
CCCc1cc(N)c2cc(NC(=O)/C=C/c3ccc([N+](=O)[O-])cc3)ccc2n1	< 50%	7.70	6.51
CCCc1cc(N)c2cc(N(C)C(=O)CCc3ccc(C(F)(F)F)cc3)ccc2n1	< 50%	5.77	–
CCCc1cc(NC2CC2)c2cc(NC(=O)/C=C/c3ccc(C(F)(F)F)cc3)ccc2n1	< 50%	7.40	–

Compound	inhibition [1]	pIC50 [2]	pEC50 [3]
CCCc1cc(N)c2cc(NC(=O)/C=C/c3ccc(I)cc3)ccc2n1	< 50%	8.64	6.55
CCCc1cc(N)c2cc(NC(=O)/C=C/c3ccc(C)cc3)ccc2n1	< 50%	8.05	7.15
CCCc1cc(N)c2cc(NC(=O)/C=C/c3ccc(C(F)(F)F)cc3)ccc2n1 (stereo in doubt; form 3) [listing 1 of 2 here]	< 50%	–	–
CCCc1cc(N)c2cc(NC(=O)c3ccc(-c4ccc(C(F)(F)F)cc4)cc3)ccc2n1	< 50%	8.35	6.51
CCCc1cc(N)c2cc(NC(=O)/C=C/c3ccccc3Cl)ccc2n1	< 50%	6.92	6.30
CCCc1cc(N(CC)CC)c2cc(NC(=O)/C=C/c3ccc(C(F)(F)F)cc3)ccc2n1	< 50%	5.96	–
Nc1cc(-c2ccccc2)nc2ccc(NC(=O)/C=C/c3ccc(Cl)cc3)cc12	< 50%	7.73	5.18
CCCc1cc(N)c2cc(NC(=O)/C=C/c3ccccc3)ccc2n1	< 50%	6.00	–
CCCc1cc(N)c2cc(NC(=O)/C=C/c3ccc(C(F)(F)F)cc3)ccc2n1 (stereo in doubt; form 2) [listing 1 of 2 here]	< 50%	–	–
Nc1cc(C2CCCCC2)nc2ccc(NC(=O)/C=C/c3ccc(C(F)(F)F)cc3)cc12	< 50%	8.92	7.02
CCCc1cc(NCC)c2cc(NC(=O)/C=C/c3ccc(C(F)(F)F)cc3)ccc2n1	< 50%	8.32	6.47
CCCc1cc(N)c2cc(NC(=O)C3CCC(c4ccc(Cl)cc4)CC3)ccc2n1 (centres undefined)	< 50%	8.36	6.43
CCc1cc(N)c2cc(NC(=O)/C=C/c3ccc(C(F)(F)F)cc3)ccc2n1	< 50%	8.92	6.96
CCCc1cc(N)c2cc(NC(=O)/C=C/c3ccc(C(F)(F)F)cc3)ccc2n1 (stereo in doubt; form 2) [listing 2 of 2 here]	–	8.70	7.40
CCCc1cc(N)c2cc(NC(=O)/C=C/c3ccc(-c4ccccc4)cc3)ccc2n1	< 50%	8.96	6.93
CCCc1cc(N)c2cc(NC(=O)Cc3ccc(C(F)(F)F)cc3)ccc2n1	< 50%	5.40	–
CC(C)c1cc(N)c2cc(NC(=O)/C=C/c3ccc(C(F)(F)F)cc3)ccc2n1	< 50%	8.68	6.80
CCCc1cc(N)c2cc(NC(=O)/C=C/c3ccc(C(F)(F)F)cc3)ccc2n1 (stereo in doubt; form 3) [listing 2 of 2 here]	–	8.89	7.22
CCCc1cc(N2CCC2)c2cc(NC(=O)/C=C/c3ccc(C(F)(F)F)cc3)ccc2n1	< 50%	8.55	5.60
CCCc1cc(N)c2cc(NC(=O)/C=C/c3ccc(C(C)C)cc3)ccc2n1	< 50%	8.54	6.28
Cc1cc(N)c2cc(NC(=O)/C=C/c3ccc(C(F)(F)F)cc3)ccc2n1	< 50%	8.10	6.85
CCCc1cc(N2CCCC2)c2cc(NC(=O)/C=C/c3ccc(C(F)(F)F)cc3)ccc2n1	< 50%	7.77	5.55
CCCc1cc(N)c2cc(NCCCc3ccc(C(F)(F)F)cc3)ccc2n1	< 50%	6.74	6.00
CCCCc1cc(N)c2cc(NC(=O)/C=C/c3ccc(C(F)(F)F)cc3)ccc2n1	< 50%	8.82	6.68
CCCc1cc(N)c2cc(NC(=O)c3ccc(-c4ccc(Cl)cc4)cc3)ccc2n1	< 50%	9.15	7.12
CCCc1cc(N)c2cc(NC(=O)/C=C/c3ccc(Br)cc3)ccc2n1	< 50%	8.40	7.03
CCCc1cc(N)c2cc(NC(=O)CCc3ccccc3)ccc2n1	< 50%	5.08	–

Source: ChEMBL document CHEMBL1137266, “4-Aminoquinoline melanin-concentrating hormone 1-receptor (MCH1R) antagonists” (Bioorg Med Chem Lett, 2006)
